Patent US20210353593A1 (Chinook Therapeutics, Inc., priority 2019, published 2021)

How the values were obtained:
[1] = system: ET-1 stimulated HRMC; assay: Hallmark gene set enrichment in ET-1 stimulated HRMC treated with atrasentan; assay type: cell-based, human; settings: atrasentan at 1 nM and 25 nM
[2] = system: upstream regulators in kidney tissue of g-ddY mice; assay: IPA upstream regulator analysis, g-ddY mouse kidney RNA-seq; assay type: in vivo; settings: 30 mg/kg/day

Compound: CCCCN(CCCC)C(=O)CN1C[C@H](c2ccc3c(c2)OCO3)[C@@H](C(=O)O)[C@@H]1c1ccc(OC)cc1 [Atrasentan, (2R,3R,4S)-4-(1,3-benzodioxol-5-yl)-1-[2-(dibutylamino)-2-oxoethyl]-2-(4-methoxyphenyl)pyrrolidine-3-carboxylic acid]
- hallmark gene set enrichment in HRMC model [1]: under-expression of hallmark gene sets
- 26s Proteasome Activation z-score [2]: −2.122
- 26s Proteasome Predicted Activation State [2]: Inhibited
- ADGRF5 Activation z-score [2]: 2
- ADGRF5 Predicted Activation State [2]: Activated
- AGT Activation z-score [2]: −4.741
- AGT Predicted Activation State [2]: Inhibited
- BMP2 Activation z-score [2]: −2.435
- BMP2 Predicted Activation State [2]: Inhibited
- CCL5 Activation z-score [2]: −2.268
- CCL5 Predicted Activation State [2]: Inhibited
- CCN5 Activation z-score [2]: 2.45
- CCN5 Predicted Activation State [2]: Activated
- CCR2 Activation z-score [2]: −3.791
- CCR2 Predicted Activation State [2]: Inhibited
- CD40LG Activation z-score [2]: −3.607
- CD40LG Predicted Activation State [2]: Inhibited
- CG Activation z-score [2]: −4.34
- CG Predicted Activation State [2]: Inhibited
- CHRM3 Activation z-score [2]: −2.425
- CHRM3 Predicted Activation State [2]: Inhibited
- CSF2 Activation z-score [2]: −5.645
- CSF2 Predicted Activation State [2]: Inhibited
- CSF3 Activation z-score [2]: −3.116
- CSF3 Predicted Activation State [2]: Inhibited
- CXCL12 Activation z-score [2]: −2.851
- CXCL12 Predicted Activation State [2]: Inhibited
- DKK1 Activation z-score [2]: 2.113
- DKK1 Predicted Activation State [2]: Activated
- EDN1 Activation z-score [2]: −4.26
- EDN1 Predicted Activation State [2]: Inhibited
- EDNRA Activation z-score [2]: −2.449
- EDNRA Predicted Activation State [2]: Inhibited
- EGF Activation z-score [2]: −3.649
- EGF Predicted Activation State [2]: Inhibited
- F2R Activation z-score [2]: −3.04
- F2R Predicted Activation State [2]: Inhibited
- F3 Activation z-score [2]: −3.862
- F3 Predicted Activation State [2]: Inhibited
- FAS Activation z-score [2]: 2.887
- FAS Predicted Activation State [2]: Activated
- FCGR1A Activation z-score [2]: −2.201
- FCGR1A Predicted Activation State [2]: Inhibited
- FGF2 Activation z-score [2]: −4.33
- FGF2 Predicted Activation State [2]: Inhibited
- FGF23 Activation z-score [2]: −2.497
- FGF23 Predicted Activation State [2]: Inhibited
- GDF2 Activation z-score [2]: −2.055
- GDF2 Predicted Activation State [2]: Inhibited
- GPER1 Activation z-score [2]: −3.527
- GPER1 Predicted Activation State [2]: Inhibited
- HGF Activation z-score [2]: −5.138
- HGF Predicted Activation State [2]: Inhibited
- HTR7 Activation z-score [2]: −2.219
- HTR7 Predicted Activation State [2]: Inhibited
- IFNA2 Activation z-score [2]: −3.465
- IFNA2 Predicted Activation State [2]: Inhibited
- IFNAR1 Activation z-score [2]: −3.094
- IFNAR1 Predicted Activation State [2]: Inhibited
- IFNG Activation z-score [2]: −4.604
- IFNG Predicted Activation State [2]: Inhibited
- IGF1 Activation z-score [2]: −2.676
- IGF1 Predicted Activation State [2]: Inhibited
- IGF1R Activation z-score [2]: 2.165
- IGF1R Predicted Activation State [2]: Activated
- IL1A Activation z-score [2]: −4.942
- IL1A Predicted Activation State [2]: Inhibited
- IL1B Activation z-score [2]: −7.154
- IL1B Predicted Activation State [2]: Inhibited
- IL2 Activation z-score [2]: −4.023
- IL2 Predicted Activation State [2]: Inhibited
- IL3 Activation z-score [2]: −3.894
- IL3 Predicted Activation State [2]: Inhibited
- IL6 Activation z-score [2]: −3.872
- IL6 Predicted Activation State [2]: Inhibited
- IL6R Activation z-score [2]: −2.179
- IL6R Predicted Activation State [2]: Inhibited
- IL10 Activation z-score [2]: −2.775
- IL10 Predicted Activation State [2]: Inhibited
- IL21 Activation z-score [2]: −2.886
- IL21 Predicted Activation State [2]: Inhibited
- IL33 Activation z-score [2]: −3.781
- IL33 Predicted Activation State [2]: Inhibited
- Ifn gamma Activation z-score [2]: −3.354
- Ifn gamma Predicted Activation State [2]: Inhibited
- Ige Activation z-score [2]: −4.883
- Ige Predicted Activation State [2]: Inhibited
- LDL Activation z-score [2]: −3.568
- LDL Predicted Activation State [2]: Inhibited
- LGR5 Activation z-score [2]: 2.137
- LGR5 Predicted Activation State [2]: Activated
- Laminin (complex) Activation z-score [2]: 2.043
- Laminin (complex) Predicted Activation State [2]: Activated
- NFkB (complex) Activation z-score [2]: −5.503
- NFkB (complex) Predicted Activation State [2]: Inhibited
- NRG1 Activation z-score [2]: −3.478
- NRG1 Predicted Activation State [2]: Inhibited
- OSM Activation z-score [2]: −5.912
- OSM Predicted Activation State [2]: Inhibited
- PDGF BB Activation z-score [2]: −3.976
- PDGF BB Predicted Activation State [2]: Inhibited
- PDGFB Activation z-score [2]: −2.622
- PDGFB Predicted Activation State [2]: Inhibited
- PF4 Activation z-score [2]: −2.219
- PF4 Predicted Activation State [2]: Inhibited
- PI3K (complex) Activation z-score [2]: −3.293
- PI3K (complex) Predicted Activation State [2]: Inhibited
- PLA2R1 Activation z-score [2]: 2.917
- PLA2R1 Predicted Activation State [2]: Activated
- PRL Activation z-score [2]: −3.529
- PRL Predicted Activation State [2]: Inhibited
- PROKR1 Activation z-score [2]: 2
- PROKR1 Predicted Activation State [2]: Activated
- PTGER4 Activation z-score [2]: 2.017
- PTGER4 Predicted Activation State [2]: Activated
- Pdgf (complex) Activation z-score [2]: −2.779
- Pdgf (complex) Predicted Activation State [2]: Inhibited
- SMO Activation z-score [2]: 2.621
- SMO Predicted Activation State [2]: Activated
- TCR Activation z-score [2]: −2.362
- TCR Predicted Activation State [2]: Inhibited
- TGFB1 Activation z-score [2]: −5.163
- TGFB1 Predicted Activation State [2]: Inhibited
- TGFB2 Activation z-score [2]: −2.631
- TGFB2 Predicted Activation State [2]: Inhibited
- TGFB3 Activation z-score [2]: −2.663
- TGFB3 Predicted Activation State [2]: Inhibited
- TLR3 Activation z-score [2]: −5.02
- TLR3 Predicted Activation State [2]: Inhibited
- TLR4 Activation z-score [2]: −4.561
- TLR4 Predicted Activation State [2]: Inhibited
- TLR9 Activation z-score [2]: −4.894
- TLR9 Predicted Activation State [2]: Inhibited
- TNF Activation z-score [2]: −6.593
- TNF Predicted Activation State [2]: Inhibited
- TNFRSF1A Activation z-score [2]: −2.449
- TNFRSF1A Predicted Activation State [2]: Inhibited
- TNFSF11 Activation z-score [2]: −2.519
- TNFSF11 Predicted Activation State [2]: Inhibited
- TNFSF12 Activation z-score [2]: −3.271
- TNFSF12 Predicted Activation State [2]: Inhibited
- TREM1 Activation z-score [2]: −3.62
- TREM1 Predicted Activation State [2]: Inhibited
- TSLP Activation z-score [2]: −2.533
- TSLP Predicted Activation State [2]: Inhibited
- TYROBP Activation z-score [2]: −2.376
- TYROBP Predicted Activation State [2]: Inhibited
- VEGFA Activation z-score [2]: −2.501
- VEGFA Predicted Activation State [2]: Inhibited
- VEGFB Activation z-score [2]: 3.128
- VEGFB Predicted Activation State [2]: Activated
- WNT3A Activation z-score [2]: −3.711
- WNT3A Predicted Activation State [2]: Inhibited
